Source: ChEMBL document CHEMBL1130950, “Synthesis and structure-activity relationship of substituted 1,2,3,4-tetrahydroisoquinolines as N-type calcium channel blockers” (Bioorg Med Chem Lett, 1998)

Molecular target: Voltage-dependent N-type calcium channel subunit alpha-1B (Homo sapiens, UniProt Q00975)
Test: Inhibition of N-type calcium channel in IMR-32 human neuroblastoma cells
Format: cell-based

Chain of Voltage-dependent N-type calcium channel subunit alpha-1B (Q00975 whole entry): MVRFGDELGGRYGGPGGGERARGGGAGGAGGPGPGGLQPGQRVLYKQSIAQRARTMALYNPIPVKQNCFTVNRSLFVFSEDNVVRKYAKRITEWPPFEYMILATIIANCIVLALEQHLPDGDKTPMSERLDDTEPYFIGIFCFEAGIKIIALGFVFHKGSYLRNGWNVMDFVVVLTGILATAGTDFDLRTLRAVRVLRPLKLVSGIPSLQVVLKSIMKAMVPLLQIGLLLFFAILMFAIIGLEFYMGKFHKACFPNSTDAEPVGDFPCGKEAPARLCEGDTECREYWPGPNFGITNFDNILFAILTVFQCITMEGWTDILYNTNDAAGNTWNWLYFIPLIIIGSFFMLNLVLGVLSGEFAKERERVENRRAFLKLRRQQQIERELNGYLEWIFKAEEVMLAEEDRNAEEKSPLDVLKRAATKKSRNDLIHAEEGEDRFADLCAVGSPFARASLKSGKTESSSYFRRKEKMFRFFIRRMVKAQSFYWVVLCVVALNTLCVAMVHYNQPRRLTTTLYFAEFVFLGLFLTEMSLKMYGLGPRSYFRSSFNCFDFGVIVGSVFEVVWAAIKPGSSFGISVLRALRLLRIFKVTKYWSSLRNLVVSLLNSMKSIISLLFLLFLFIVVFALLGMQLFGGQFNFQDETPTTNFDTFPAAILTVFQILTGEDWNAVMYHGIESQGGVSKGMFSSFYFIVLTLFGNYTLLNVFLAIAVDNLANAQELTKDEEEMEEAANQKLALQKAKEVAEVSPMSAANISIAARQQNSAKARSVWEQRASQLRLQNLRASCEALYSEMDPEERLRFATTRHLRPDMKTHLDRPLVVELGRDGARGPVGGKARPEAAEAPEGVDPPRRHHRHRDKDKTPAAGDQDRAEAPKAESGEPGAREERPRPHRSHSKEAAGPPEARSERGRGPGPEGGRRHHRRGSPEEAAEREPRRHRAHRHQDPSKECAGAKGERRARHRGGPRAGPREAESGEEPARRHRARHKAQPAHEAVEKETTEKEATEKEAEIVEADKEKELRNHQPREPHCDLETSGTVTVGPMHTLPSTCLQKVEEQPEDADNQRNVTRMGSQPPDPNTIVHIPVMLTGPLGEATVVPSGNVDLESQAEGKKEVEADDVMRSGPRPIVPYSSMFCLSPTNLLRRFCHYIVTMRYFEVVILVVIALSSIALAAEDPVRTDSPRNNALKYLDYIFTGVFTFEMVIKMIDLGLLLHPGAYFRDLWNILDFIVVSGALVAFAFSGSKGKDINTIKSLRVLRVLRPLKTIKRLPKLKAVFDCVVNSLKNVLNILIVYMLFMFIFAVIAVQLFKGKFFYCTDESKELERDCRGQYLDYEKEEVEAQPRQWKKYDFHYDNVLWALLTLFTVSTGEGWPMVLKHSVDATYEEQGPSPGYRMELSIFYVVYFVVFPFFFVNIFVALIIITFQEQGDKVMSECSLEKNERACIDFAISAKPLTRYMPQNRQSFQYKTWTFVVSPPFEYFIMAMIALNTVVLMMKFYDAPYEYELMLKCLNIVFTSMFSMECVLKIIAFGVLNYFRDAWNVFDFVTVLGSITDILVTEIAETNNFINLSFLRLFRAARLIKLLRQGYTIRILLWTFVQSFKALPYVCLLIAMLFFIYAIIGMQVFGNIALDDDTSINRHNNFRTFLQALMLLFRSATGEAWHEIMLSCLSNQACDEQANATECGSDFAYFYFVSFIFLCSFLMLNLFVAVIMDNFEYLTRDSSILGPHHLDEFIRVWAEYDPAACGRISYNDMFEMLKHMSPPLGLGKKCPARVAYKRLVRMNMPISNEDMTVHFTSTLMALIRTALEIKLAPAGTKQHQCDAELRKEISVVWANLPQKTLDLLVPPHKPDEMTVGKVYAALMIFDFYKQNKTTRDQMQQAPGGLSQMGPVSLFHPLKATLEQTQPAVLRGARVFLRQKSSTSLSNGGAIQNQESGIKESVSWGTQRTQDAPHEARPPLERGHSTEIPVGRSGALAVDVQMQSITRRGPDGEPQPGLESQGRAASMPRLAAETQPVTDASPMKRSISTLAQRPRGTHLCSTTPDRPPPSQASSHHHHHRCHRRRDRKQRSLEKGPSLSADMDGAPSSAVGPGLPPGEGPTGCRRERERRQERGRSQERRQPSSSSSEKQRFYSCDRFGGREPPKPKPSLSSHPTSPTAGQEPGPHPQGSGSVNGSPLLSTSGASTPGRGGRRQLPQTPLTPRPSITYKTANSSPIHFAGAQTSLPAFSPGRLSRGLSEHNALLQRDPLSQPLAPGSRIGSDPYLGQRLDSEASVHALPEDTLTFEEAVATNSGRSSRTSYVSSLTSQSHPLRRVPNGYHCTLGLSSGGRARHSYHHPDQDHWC

SMILES	IC50 [µM]
Oc1c(CN2CCCCCC2)ccc2cnccc12	35
CN1CCc2c(ccc(CN3CCCCCC3)c2O)C1	> 100
COc1ccc(CCCCN2CCc3c(ccc(CN4CCCCCC4)c3O)C2)cc1	10
Oc1c(CN2CCCCCC2)ccc2c1CCN(CCC(c1ccccc1)c1ccccc1)C2	7.4
Oc1c(CN2CCCCCC2)ccc2c1CCN(CCCCc1ccccc1)C2	15

Molecules with a lower IC50, results first:

IC50 [µM]	SMILES
0.46	Oc1c(CN2CCCCCC2)ccc2c1CCN(CCCC(c1ccccc1)c1ccccc1)C2
2.5	Oc1c(CN2CCCCCC2)ccc2c1CCN(CCCCC=C(c1ccccc1)c1ccccc1)C2
4.4	Oc1c(CN2CCCCC2)cc(Cc2cc(CN3CCCCC3)c(O)c3ncccc23)c2ccncc12
4.8	Oc1c(CN2CCCCCC2)ccc2c1CCN(CCCCC(c1ccccc1)c1ccccc1)C2
1.1	Oc1c(CN2CCCCCC2)ccc2c1CCN(CCCCCC(c1ccccc1)c1ccccc1)C2
5.1	Oc1c(CN2CCCCCC2)ccc2c1CCN(CCCCc1ccc(F)cc1)C2
